In patent US20250122219A1 (priority 2023, published 2025):
Read-outs that look alike come from different tables or passages of the source.

How the values were obtained:
HIV-1 (IIIB) = test: Antiviral assay in MT-4 cells; assay type: cell-based
Outline: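 Read-out: CellTiter-Glo luminescence after 5 days at 37 °C, reflecting survival of MT-4 cells infected with HIV-1 IIIB (1:250 fresh stock dilution) versus mock-infected. Compounds serially diluted into RPMI with 10% FBS; AZT at 5 μM served as positive control.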

[1] = Cytotoxicity assay in MT-4 cells; assay type: cell-based; details: human; uninfected MT-4 cells, 5 days incubation, Cell Titer Glo; read-out: MT4 CC50
Outline: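 Viability read by Cell Titer Glo luminescence after 5 days at 37 °C. MT-4 cells, not infected, in complete RPMI (10% FBS), received compound dilution series. Base cytotoxicity set with […] puromycin.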

[2] = Human immunodeficiency virus 1, MT4, 120 h, HIV-1 IIIB in MT-4 cells, 5 days incubation, Cell Titer Glo, read-out: MT4 EC50

## CCCCCCC(=O)Oc1c2n(cc(C(=O)NCc3ccc(F)cc3F)c1=O)[C@@H]1CN(C2=O)[C@@H](C)CC[C@]12CC(OC)=NO2 [Example 38, (3′S,5S,7′R)-10′-((2,4-difluorobenzyl)carbamoyl)-3-methoxy-3′-methyl-1′,11′-dioxo-1′,4′,5′,11′-tetrahydro-3′H,4H,7′H-spiro[isoxazole-5,6′-[2,7]methanopyrido[1,2-a][1,4]diazonin]-12′-yl heptanoate]
HIV-1 (IIIB); [2]
  EC50: 0.331 nM
[1]
  CC50 at 5 days: 25700 nM

## COC1=NO[C@@]2(CC[C@H](C)N3C[C@H]2n2cc(C(=O)NCc4ccc(F)cc4F)c(=O)c(OC(=O)OCCCCCCCC(C)C)c2C3=O)C1 [Example 161, (3′S,5S,7′R)-10′-((2,4-difluorobenzyl)carbamoyl)-3-methoxy-3′-methyl-1′,11′-dioxo-1′,4′,5′,11′-tetrahydro-3′H,4H,7′H-spiro[isoxazole-5,6′-[2,7]methanopyrido[1,2-a][1,4]diazonin]-12′-yl (8-methylnonyl) carbonate]
HIV-1 (IIIB); [2]
  EC50: 1.59 nM
[1]
  CC50 at 5 days: 40600 nM

## CC1=NO[C@@]2(CC[C@H](C)N3C[C@H]2n2cc(C(=O)NCc4ccc(F)cc4F)c(=O)c(OCOC(=O)OCCCC(C)C)c2C3=O)C1 [Example 203, (((3′S,5S,7′R)-10′-((2,4-difluorobenzyl)carbamoyl)-3,3′-dimethyl-1′,11′-dioxo-1′,4′,5′,11′-tetrahydro-3′H,4H,7′H-spiro[isoxazole-5,6′-[2,7]methanopyrido[1,2-a][1,4]diazonin]-12′-yl)oxy)methyl (4-methylpentyl) carbonate]
HIV-1 (IIIB); [2]
  EC50: 3.56 nM
[1]
  CC50 at 5 days: 26400 nM

## CCCCCCCCCCCC(=O)Oc1c2n(cc(C(=O)NCc3ccc(F)cc3F)c1=O)[C@@H]1CN(C2=O)[C@@H](C)CC[C@]12CC(C)=NO2 [Example 47, (3′S,5S,7′R)-10′-((2,4-difluorobenzyl)carbamoyl)-3,3′-dimethyl-1′,11′-dioxo-1′,4′,5′,11′-tetrahydro-3′H,4H,7′H-spiro[isoxazole-5,6′-[2,7]methanopyrido[1,2-a][1,4]diazonin]-12′-yl dodecanoate]
HIV-1 (IIIB); [2]
  EC50: 2.01 nM
[1]
  CC50 at 5 days: 22600 nM

## COC1=NO[C@@]2(CC[C@H](C)N3C[C@H]2n2cc(C(=O)NCc4ccc(F)cc4F)c(=O)c(OC(=O)CCCCCCC(C)C)c2C3=O)C1 [Example 66, (3′S,5S,7′R)-10′-((2,4-difluorobenzyl)carbamoyl)-3-methoxy-3′-methyl-1′,11′-dioxo-1′,4′,5′,11′-tetrahydro-3′H,4H,7′H-spiro[isoxazole-5,6′-[2,7]methanopyrido[1,2-a][1,4]diazonin]-12′-yl 8-methylnonanoate]
HIV-1 (IIIB); [2]
  EC50: 0.316 nM
[1]
  CC50 at 5 days: 22300 nM

## CCOC(=O)OCOc1c2n(cc(C(=O)NCc3ccc(F)cc3F)c1=O)[C@@H]1CN(C2=O)[C@@H](C)CC[C@]12CC(OC)=NO2 [Example 173, (((3′S,5S,7′R)-10′-((2,4-difluorobenzyl)carbamoyl)-3-methoxy-3′-methyl-1′,11′-dioxo-1′,4′,5′,11′-tetrahydro-3′H,4H,7′H-spiro[isoxazole-5,6′-[2,7]methanopyrido[1,2-a][1,4]diazonin]-12′-yl)oxy)methyl ethyl carbonate]
HIV-1 (IIIB); [2]
  EC50: 4.75 nM
[1]
  CC50 at 5 days: 37900 nM

## CCCCC(=O)Oc1c2n(cc(C(=O)NCc3ccc(F)cc3F)c1=O)[C@@H]1CN(C2=O)[C@@H](C)CC[C@]12CC(OC)=NO2 [Example 29, (3′S,5S,7′R)-10′-((2,4-difluorobenzyl)carbamoyl)-3-methoxy-3′-methyl-1′,11′-dioxo-1′,4′,5′,11′-tetrahydro-3′H,4H,7′H-spiro[isoxazole-5,6′-[2,7]methanopyrido[1,2-a][1,4]diazonin]-12′-yl pentanoate]
HIV-1 (IIIB); [2]
  EC50: 1.61 nM
[1]
  CC50 at 5 days: 12300 nM

## COC1=NO[C@@]2(CC[C@H](C)N3C[C@H]2n2cc(C(=O)NCc4ccc(F)cc4F)c(=O)c(OCOC(=O)OCCCCCC(C)C)c2C3=O)C1 [Example 208, (((3′S,5S,7′R)-10′-((2,4-difluorobenzyl)carbamoyl)-3-methoxy-3′-methyl-1′,11′-dioxo-1′,4′,5′,11′-tetrahydro-3′H,4H,7′H-spiro[isoxazole-5,6′-[2,7]methanopyrido[1,2-a][1,4]diazonin]-12′-yl)oxy)methyl (6-methylheptyl) carbonate]
HIV-1 (IIIB); [2]
  EC50: 0.594 nM
[1]
  CC50 at 5 days: 21300 nM

## COC[C@@H](C)OC(=O)OCOc1c2n(cc(C(=O)NCc3ccc(F)cc3F)c1=O)[C@@H]1CN(C2=O)[C@@H](C)CC[C@]12CC(OC)=NO2 [Example 214, (((3′S,5S,7′R)-10′-((2,4-difluorobenzyl)carbamoyl)-3-methoxy-3′-methyl-1′,11′-dioxo-1′,4′,5′,11′-tetrahydro-3′H,4H,7′H-spiro[isoxazole-5,6′-[2,7]methanopyrido[1,2-a][1,4]diazonin]-12′-yl)oxy)methyl ((R)-1-methoxypropan-2-yl) carbonate]
HIV-1 (IIIB); [2]
  EC50: 6.25 nM
[1]
  CC50 at 5 days: ≥ 50000 nM

## CCCCOC(=O)Oc1c2n(cc(C(=O)NCc3ccc(F)cc3F)c1=O)[C@@H]1CN(C2=O)[C@@H](C)CC[C@]12CC(OC)=NO2 [Example 128, butyl ((3′S,5S,7′R)-10′-((2,4-difluorobenzyl)carbamoyl)-3-methoxy-3′-methyl-1′,11′-dioxo-1′,4′,5′,11′-tetrahydro-3′H,4H,7′H-spiro[isoxazole-5,6′-[2,7]methanopyrido[1,2-a][1,4]diazonin]-12′-yl) carbonate]
HIV-1 (IIIB); [2]
  EC50: 0.21 nM
[1]
  CC50 at 5 days: 19300 nM

## CCCCCCCCCCCCCCCCOC(=O)OCOc1c2n(cc(C(=O)NCc3ccc(F)cc3F)c1=O)[C@@H]1CN(C2=O)[C@@H](C)CC[C@]12CC(C)=NO2 [Example 194, (((3′S,5S,7′R)-10′-((2,4-difluorobenzyl)carbamoyl)-3,3′-dimethyl-1′,11′-dioxo-1′,4′,5′,11′-tetrahydro-3′H,4H,7′H-spiro[isoxazole-5,6′-[2,7]methanopyrido[1,2-a][1,4]diazonin]-12′-yl)oxy)methyl hexadecyl carbonate]
HIV-1 (IIIB); [2]
  EC50: 16.7 nM
[1]
  CC50 at 5 days: ≥ 50000 nM

## COC1=NO[C@@]2(CC[C@H](C)N3C[C@H]2n2cc(C(=O)NCc4ccc(F)cc4F)c(=O)c(OCOC(=O)CCC(C)C)c2C3=O)C1 [Example 82, (((3′S,5S,7′R)-10′-((2,4-difluorobenzyl)carbamoyl)-3-methoxy-3′-methyl-1′,11′-dioxo-1′,4′,5′,11′-tetrahydro-3′H,4H,7′H-spiro[isoxazole-5,6′-[2,7]methanopyrido[1,2-a][1,4]diazonin]-12′-yl)oxy)methyl 4-methylpentanoate]
HIV-1 (IIIB); Human immunodeficiency virus 1, IIIB, MT4, 120 h, read-out: MT4 EC50 (nM)
  EC50: 2.52 nM
[1]
  CC50 at 5 days: 17300 nM

## CCCCCCCCCCCCOC(=O)Oc1c2n(cc(C(=O)NCc3ccc(F)cc3F)c1=O)[C@@H]1CN(C2=O)[C@@H](C)CC[C@]12CC(OC)=NO2 [Example 142, (3′S,5S,7′R)-10′-((2,4-difluorobenzyl)carbamoyl)-3-methoxy-3′-methyl-1′,11′-dioxo-1′,4′,5′,11′-tetrahydro-3′H,4H,7′H-spiro[isoxazole-5,6′-[2,7]methanopyrido[1,2-a][1,4]diazonin]-12′-yl dodecyl carbonate]
HIV-1 (IIIB); [2]
  EC50: 3.64 nM
[1]
  CC50 at 5 days: 36400 nM

## COC1=NO[C@@]2(CC[C@H](C)N3C[C@H]2n2cc(C(=O)NCc4ccc(F)cc4F)c(=O)c(OC(=O)OCCC(C)C)c2C3=O)C1 [Example 151, (3′S,5S,7′R)-10′-((2,4-difluorobenzyl)carbamoyl)-3-methoxy-3′-methyl-1′,11′-dioxo-1′,4′,5′,11′-tetrahydro-3′H,4H,7′H-spiro[isoxazole-5,6′-[2,7]methanopyrido[1,2-a][1,4]diazonin]-12′-yl isopentyl carbonate]
HIV-1 (IIIB); [2]
  EC50: 0.17 nM
[1]
  CC50 at 5 days: 18500 nM

## CCCCCCCCCCCCCCCC(=O)Oc1c2n(cc(C(=O)NCc3ccc(F)cc3F)c1=O)[C@@H]1CN(C2=O)[C@@H](C)CC[C@]12CC(OC)=NO2 [Example 27, (3′S,5S,7′R)-10′-((2,4-difluorobenzyl)carbamoyl)-3-methoxy-3′-methyl-1′,11′-dioxo-1′,4′,5′,11′-tetrahydro-3′H,4H,7′H-spiro[isoxazole-5,6′-[2,7]methanopyrido[1,2-a][1,4]diazonin]-12′-yl palmitate]
HIV-1 (IIIB); [2]
  EC50: 4.5 nM
[1]
  CC50 at 5 days: ≥ 50000 nM

## CCCCCCCCC(=O)OCOc1c2n(cc(C(=O)NCc3ccc(F)cc3F)c1=O)[C@@H]1CN(C2=O)[C@@H](C)CC[C@]12CC(OC)=NO2 [Example 97, (((3′S,5S,7′R)-10′-((2,4-difluorobenzyl)carbamoyl)-3-methoxy-3′-methyl-1′,11′-dioxo-1′,4′,5′,11′-tetrahydro-3′H,4H,7′H-spiro[isoxazole-5,6′-[2,7]methanopyrido[1,2-a][1,4]diazonin]-12′-yl)oxy)methyl nonanoate]
HIV-1 (IIIB); [2]
  EC50: 4.59 nM
[1]
  CC50 at 5 days: ≥ 50000 nM

## CC1=NO[C@@]2(CC[C@H](C)N3C[C@H]2n2cc(C(=O)NCc4ccc(F)cc4F)c(=O)c(OC(=O)OCCCCC(C)C)c2C3=O)C1 [Example 154, (3′S,5S,7′R)-10′-((2,4-difluorobenzyl)carbamoyl)-3,3′-dimethyl-1′,11′-dioxo-1′,4′,5′,11′-tetrahydro-3′H,4H,7′H-spiro[isoxazole-5,6′-[2,7]methanopyrido[1,2-a][1,4]diazonin]-12′-yl (5-methylhexyl) carbonate]
HIV-1 (IIIB); [2]
  EC50: 1.72 nM
[1]
  CC50 at 5 days: 17200 nM

## COC1=NO[C@@]2(CC[C@H](C)N3C[C@H]2n2cc(C(=O)NCc4ccc(F)cc4F)c(=O)c(OC(=O)OCCCCC(C)C)c2C3=O)C1 [Example 155, (3′S,5S,7′R)-10′-((2,4-difluorobenzyl)carbamoyl)-3-methoxy-3′-methyl-1′,11′-dioxo-1′,4′,5′,11′-tetrahydro-3′H,4H,7′H-spiro[isoxazole-5,6′-[2,7]methanopyrido[1,2-a][1,4]diazonin]-12′-yl (5-methylhexyl) carbonate]
HIV-1 (IIIB); [2]
  EC50: 1.19 nM
[1]
  CC50 at 5 days: 17500 nM
